Experimental data from the supplement of paper PMC10307832.

Experiments:
Assay in all cases: relative viability (nuclei count vs DMSO), 5 days (fraction); higher = more cells survive
Ponatinib + OSI-027 = compound: Cc1ccc(C(=O)Nc2ccc(CN3CCN(C)CC3)c(C(F)(F)F)c2)cc1C#Cc1cnc2cccnn12 [Ponatinib] + COc1cccc2cc(-c3nc([C@H]4CC[C@H](C(=O)O)CC4)n4ncnc(N)c34)[nH]c12 [OSI-027] (partner 0.5 µM)
Procedure, shortened: (§1)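 Nuclei were stained with Hoechst during a one-step fixation (final 0.05% Triton X-100, 1% formaldehyde, 1 ug/ml Hoechst) carried out 5 days after dosing, then counted on 4× images. The cells, lung cancer lines in 1536-well plates, had been dosed by pin tool the day after seeding with one drug alone or a fixed anchor-drug dose plus five library-drug doses (not always all listed) in √10 steps. Relative viability is the nuclei count in treated wells divided by that in vehicle wells, and each value is the median of duplicate plates.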

Ponatinib + Crizotinib = compound: Cc1ccc(C(=O)Nc2ccc(CN3CCN(C)CC3)c(C(F)(F)F)c2)cc1C#Cc1cnc2cccnn12 [Ponatinib] + C[C@@H](Oc1cc(-c2cnn(C3CCNCC3)c2)cnc1N)c1c(Cl)ccc(F)c1Cl [Crizotinib] (partner 1 µM)
Procedure, shortened: as §1

Pazopanib + Phenformin = compound: Cc1ccc(Nc2nccc(N(C)c3ccc4c(C)n(C)nc4c3)n2)cc1S(N)(=O)=O [Pazopanib] + N=C(N)NC(=N)NCCc1ccccc1 [Phenformin] (partner 250 µM)
Procedure, shortened: as §1

Pazopanib + Pemetrexed = compound: Cc1ccc(Nc2nccc(N(C)c3ccc4c(C)n(C)nc4c3)n2)cc1S(N)(=O)=O [Pazopanib] + Nc1nc2[nH]cc(CCc3ccc(C(=O)N[C@@H](CCC(=O)O)C(=O)O)cc3)c2c(=O)[nH]1 [Pemetrexed] (partner 0.2 µM)
Procedure, shortened: as §1

Work on UMC-11 yielded a relative viability (Ponatinib + OSI-027; first compound 0.002 µM) of 0.47, a relative viability (Ponatinib + OSI-027; first compound 0.006325 µM) of 0.49 and a relative viability (Ponatinib + OSI-027; first compound 0.06325 µM) of 0.555. For the same cell line, the relative viability (Ponatinib + OSI-027; first compound 0.2 µM) was 0.525, the relative viability (Ponatinib + Crizotinib; first compound 0.002 µM) was 0.678 and the relative viability (Ponatinib + Crizotinib; first compound 0.006325 µM) was 0.603. For the same cell line, the relative viability (Ponatinib + Crizotinib; first compound 0.06325 µM) was 0.786, the relative viability (Ponatinib + Crizotinib; first compound 0.2 µM) was 0.612 and the relative viability (Pazopanib + Phenformin; first compound 0.01 µM) was 0.347. The relative viability (Pazopanib + Phenformin; first compound 0.03162 µM) was 0.339, the relative viability (Pazopanib + Phenformin; first compound 0.1 µM) was 0.361 and the relative viability (Pazopanib + Phenformin; first compound 0.3162 µM) was 0.32. For the same cell line, the relative viability (Pazopanib + Phenformin; first compound 1 µM) was 0.341, the relative viability (Pazopanib + Pemetrexed; first compound 0.01 µM) was 0.743 and the relative viability (Pazopanib + Pemetrexed; first compound 0.03162 µM) was 0.908. For the same cell line, the relative viability (Pazopanib + Pemetrexed; first compound 0.1 µM) was 0.871, the relative viability (Pazopanib + Pemetrexed; first compound 0.3162 µM) was 0.701 and the relative viability (Pazopanib + Pemetrexed; first compound 1 µM) was 0.844.
